Data published in US20210038563A1, “NEW SPIRONOLACTONE FORMULATIONS AND THEIR USE” (Apidel SA, priority 2018, published 2021).
pIC50: −log10 of the molar value.

How the values were obtained:
[1] = test system: MR; conditions: Corvol et al. [19]; cited from earlier work
[2] = target: mineralocorticoid receptor; conditions: Sutanto et al. [20]; read-out: half maximal inhibitory concentrations (IC50); cited from earlier work
[3] = test system: dexamethasone-induced delayed corneal wound healing; assay: Corneal re-epithelialization evaluation (fluorescein test) after corneal de-epithelialization; type: in vivo, New Zealand white rabbit; conditions: Day 4; mean ± SD
Procedure: Fifty male albino New Zealand rabbits weighing approximately 2.3-3.0 kg were included for this study (Iris Pharma, France). Animals were housed individually in standard cages, under identical environmental conditions. The temperature was kept at 15-21° C. and the relative humidity was >45%. Rooms were continuously ventilated (>15 air volumes per hour). Temperature and relative humidity were continuously controlled and recorded. Animals were routinely exposed (in-cage) to a 10-200 1× light in a 12-hour light/dark cycle (from 7:00 a.m. to 7:00 p.m.). Animals had enrichment and free access to food (150 g/day) and were allowed water ad libitum. All animals were healthy and free of clinically observable ocular abnormalities throughout the study. […]
The animals were anesthetized by an intramuscular injection of a ketamine-xylazine mixture. […] De-epithelialization was monitored by fluorescein staining. […]
The size of the corneal wound was evaluated using the fluorescein test immediately after ocular debridement and once a day before the first instillation of the day. A baseline was recorded before the de-epithelialization. […] Images of the corneal lesion (area stained by fluorescein) were taken using a CCD camera and analyzed using image J software. […]

[4] = [26, 27]; cited from earlier work

Compound: C[C@]12CCC(=O)C=C1C=C[C@@H]1[C@@H]2CC[C@@]2(C)[C@H]1CC[C@@]21CCC(=O)O1 [CAN, Canrenone]
- Affinity for the MR, fold lower as compared to SPL [1]: 10 fold

Compound: C[C@]12CCC(=O)C=C1C=C[C@@H]1[C@@H]2CC[C@@]2(C)[C@H]1CC[C@@]2(O)CCC(=O)O [CANK, potassium canrenoate]
- Affinity for the MR [1]: very low affinity
- pIC50 [2]: < 6.00

Compound: C[C@@H]1C[C@H]2[C@@H]3CCC4=CC(=O)C=C[C@]4(C)[C@@]3(F)[C@@H](O)C[C@]2(C)[C@@]1(O)C(=O)CO [DXM, Dexamethasone]
- Mean percentage of re-epithelialization [3]: 84.6±13.9%

Compound: CC(=O)S[C@@H]1CC2=CC(=O)CC[C@]2(C)[C@H]2CC[C@@]3(C)[C@@H](CC[C@@]34CCC(=O)O4)[C@H]12 [SPL, 7α-Acetylthio-17α-hydroxy-3-oxopregn-4-ene-21-carboxylic acid γ-lactone]
- plasma half-life [4]: 1.4 h

Compound: CS[C@@H]1CC2=CC(=O)CC[C@]2(C)[C@H]2CC[C@@]3(C)[C@@H](CC[C@@]34CCC(=O)O4)[C@H]12 [TMSPL, 7α-thiomethylspironolactone]
- plasma half-life [4]: 13.8 h
